Reference: US9439432B2, “Phenylisoxazoline-based compound having herbicidal activity and use thereof” (MOGHU RESEARCH CENTER LTD, priority 2011, dated 2016)

Legend:
Type in all cases: in vivo
Corn [1] = assay: Pre-emergence treatment, phytotoxicity to corn; details: 500 g/ha, 4 weeks after spraying, scale 0 to 10 (0: no effects, 10: complete death)
Protocol: (§1) A rectangular plastic pot having a surface area of 300 cm^2 was filled with sandy loam soil and mixed bed soil which were mixed at a ratio of 1:1, and then, barnyardrass (Echinochloa crusgalli), large crabgrass (Digitaria sanguinalis), blackgrass (Alopecurus myosuroides), and annual bluegrass (Poa annua), which are grass weeds, were seeded thereto. In a pot that was prepared as described above, seeds of corn, soybean, cotton, wheat, and rice were seeded. The pots were irrigated, and one day after, chemicals were sprayed thereto. The spraying was performed by using a track sprayer (R&D Sprayer, USA) equipped with a Teejet 8002 (Spraying Systems Co., USA) nozzle, and a spraying amount was adjusted at 300 L/ha. A spraying solution was prepared by dissolving test materials or references in acetone and adding the same amount of 0.2%(v/v) tween 20 aqueous solution thereto. Application rates were 500, 250, 125, and 62.5 g/ha. The pots were placed in a greenhouse in which during day, the temperature was maintained at a temperature of 25 to 30° C., and during night, the temperature was maintained at a temperature of 15 to 25° C., and the pots were periodically irrigated. Four weeks after the spraying the test materials or References, effects and phytotoxicity of the respective weeds and crops were evaluated in a scale of 0 to 10 (0: no effects, 10: complete death), and results thereof are shown in Table 4 below.

Soybean [2] = assay: Pre-emergence treatment, phytotoxicity to soybean; details: 500 g/ha, 4 weeks after spraying, scale 0 to 10 (0: no effects, 10: complete death)
Protocol: as §1

Cotton [3] = assay: Pre-emergence treatment, phytotoxicity to cotton; details: 500 g/ha, 4 weeks after spraying, scale 0 to 10 (0: no effects, 10: complete death)
Protocol: as §1

Wheat [4] = assay: Pre-emergence treatment, phytotoxicity to wheat; details: 500 g/ha, 4 weeks after spraying, scale 0 to 10 (0: no effects, 10: complete death)
Protocol: as §1

Rice [5] = assay: Pre-emergence treatment, phytotoxicity to rice; details: 500 g/ha, 4 weeks after spraying, scale 0 to 10 (0: no effects, 10: complete death)
Protocol: as §1

Echinochloa crusgalli [6] = assay: Pre-emergence treatment, herbicidal efficacy on barnyardgrass; details: 4 weeks after spraying
Protocol: as §1

Digitaria sanguinalis [7] = assay: Pre-emergence treatment, herbicidal efficacy on large crabgrass; details: 4 weeks after spraying, scale 0 to 10
Protocol: as §1

Poa annua [8] = assay: Pre-emergence treatment, herbicidal efficacy on annual bluegrass; details: 4 weeks after spraying, scale 0 to 10
Protocol: as §1

Alopecurus myosuroides [9] = assay: Pre-emergence treatment, herbicidal efficacy on blackgrass; details: 4 weeks after spraying, scale 0 to 10
Protocol: as §1

Corn [10] = assay: Post-emergence treatment, phytotoxicity to corn; details: post-emergence (about 3 leaf stage), 1,000 g/ha, 4 weeks after spraying, scale 0 to 10 (0: no effects, 10: complete death)
Protocol: as §1
(§2) Pots containing crops and weeds were prepared in the same manner as in Example 7, and then, in the second week in which crops and weeds entered into about 3 leaf stage, the test materials and the references were sprayed thereto in the same manner as described above. The rates were 1,000, 500, 250, and 125 g/ha. Four weeks after the spraying of the test materials or the references, herbicidal efficacy and phytotoxicity to the respective weeds and crops were evaluated in a scale of 0 to 10 (0: no effects, 10: complete death).

Soybean [11] = assay: Post-emergence treatment, phytotoxicity to soybean; details: post-emergence (about 3 leaf stage), 1,000 g/ha, 4 weeks after spraying, scale 0 to 10 (0: no effects, 10: complete death)
Protocol: as §1, §2

Cotton [12] = assay: Post-emergence treatment, phytotoxicity to cotton; details: post-emergence (about 3 leaf stage), 1,000 g/ha, 4 weeks after spraying, scale 0 to 10 (0: no effects, 10: complete death)
Protocol: as §1, §2

Wheat [13] = assay: Post-emergence treatment, phytotoxicity to wheat; details: post-emergence (about 3 leaf stage), 1,000 g/ha, 4 weeks after spraying, scale 0 to 10 (0: no effects, 10: complete death)
Protocol: as §1, §2

Rice [14] = assay: Post-emergence treatment, phytotoxicity to rice; details: post-emergence (about 3 leaf stage), 1,000 g/ha, 4 weeks after spraying, scale 0 to 10 (0: no effects, 10: complete death)
Protocol: as §1, §2

Echinochloa crusgalli [15] = assay: Post-emergence treatment, herbicidal efficacy on barnyardgrass; details: 4 weeks after spraying, scale 0 to 10
Protocol: as §1, §2

Digitaria sanguinalis [16] = assay: Post-emergence treatment, herbicidal efficacy on large crabgrass; details: 4 weeks after spraying, scale 0 to 10
Protocol: as §1, §2

Poa annua [17] = assay: Post-emergence treatment, herbicidal efficacy on annual bluegrass; details: 4 weeks after spraying, scale 0 to 10
Protocol: as §1, §2

Alopecurus myosuroides [18] = assay: Post-emergence treatment, herbicidal efficacy on blackgrass; details: 4 weeks after spraying, scale 0 to 10
Protocol: as §1, §2

[19] = 500 g/ha, scale 0 to 10 (0: no effects, 10: complete death)

CC1(COCc2c(F)cccc2F)CC(c2ccccc2Br)=NO1 (stereo not drawn) [Compound 3, 3-(2-bromophenyl)-5-((2,6-difluorobenzyloxy)methyl)-5-methyl-4,5-dihydroisoxazole]
0: Phytotoxicity, Soybean (Soybean [2]) | Phytotoxicity, Cotton (Cotton [3]) | Phytotoxicity, Wheat (Wheat [4]) | Phytotoxicity, Rice (Rice [5])
10: Herbicidal efficacy, Echinochloa crusgalli (Echinochloa crusgalli [6]; 62.5 g/ha, scale 0 to 10) | Herbicidal efficacy, Echinochloa crusgalli (Echinochloa crusgalli [6]; 125 g/ha, scale 0 to 10) | Herbicidal efficacy, Echinochloa crusgalli (Echinochloa crusgalli [6]; 250 g/ha, scale 0 to 10) | Herbicidal efficacy, Echinochloa crusgalli (Echinochloa crusgalli [6]; [19]) | Herbicidal efficacy, Digitaria sanguinalis (Digitaria sanguinalis [7]; 62.5 g/ha) | Herbicidal efficacy, Digitaria sanguinalis (Digitaria sanguinalis [7]; 125 g/ha) | Herbicidal efficacy, Digitaria sanguinalis (Digitaria sanguinalis [7]; 250 g/ha) | Herbicidal efficacy, Digitaria sanguinalis (Digitaria sanguinalis [7]; 500 g/ha) | Herbicidal efficacy, Poa annua (Poa annua [8]; 500 g/ha)
4: Herbicidal efficacy, Poa annua (Poa annua [8]; 62.5 g/ha) | Herbicidal efficacy, Alopecurus myosuroides (Alopecurus myosuroides [9]; 62.5 g/ha) | Herbicidal efficacy, Alopecurus myosuroides (Alopecurus myosuroides [9]; 125 g/ha)
5: Herbicidal efficacy, Alopecurus myosuroides (Alopecurus myosuroides [9]; 250 g/ha)
2: Phytotoxicity, Corn (Corn [1])
8: Herbicidal efficacy, Poa annua (Poa annua [8]; 250 g/ha)
7: Herbicidal efficacy, Poa annua (Poa annua [8]; 125 g/ha) | Herbicidal efficacy, Alopecurus myosuroides (Alopecurus myosuroides [9]; 500 g/ha)

Cc1ccccc1C1=NOC(C)(COCc2ccccc2)C1 (stereo not drawn) [Reference C]
4: Herbicidal efficacy, Alopecurus myosuroides (Alopecurus myosuroides [9]; 250 g/ha) | Herbicidal efficacy, Echinochloa crusgalli (Echinochloa crusgalli [15]; post-emergence, 500 g/ha) | Herbicidal efficacy, Digitaria sanguinalis (Digitaria sanguinalis [16]; post-emergence, 500 g/ha) | Herbicidal efficacy, Poa annua (Poa annua [17]; post-emergence, 1,000 g/ha)
8: Herbicidal efficacy, Echinochloa crusgalli (Echinochloa crusgalli [6]; 250 g/ha, scale 0 to 10)
2: Herbicidal efficacy, Echinochloa crusgalli (Echinochloa crusgalli [6]; 62.5 g/ha, scale 0 to 10) | Herbicidal efficacy, Poa annua (Poa annua [8]; 62.5 g/ha) | Herbicidal efficacy, Alopecurus myosuroides (Alopecurus myosuroides [9]; 125 g/ha) | Phytotoxicity, Corn (Corn [10]) | Herbicidal efficacy, Poa annua (Poa annua [17]; post-emergence, 250 g/ha)
10: Herbicidal efficacy, Echinochloa crusgalli (Echinochloa crusgalli [6]; [19]) | Herbicidal efficacy, Digitaria sanguinalis (Digitaria sanguinalis [7]; 500 g/ha)
1: Phytotoxicity, Corn (Corn [1]) | Phytotoxicity, Soybean (Soybean [2]) | Phytotoxicity, Cotton (Cotton [3]) | Herbicidal efficacy, Echinochloa crusgalli (Echinochloa crusgalli [15]; post-emergence, 125 g/ha) | Herbicidal efficacy, Digitaria sanguinalis (Digitaria sanguinalis [16]; post-emergence, 125 g/ha)
6: Herbicidal efficacy, Digitaria sanguinalis (Digitaria sanguinalis [7]; 125 g/ha) | Herbicidal efficacy, Alopecurus myosuroides (Alopecurus myosuroides [9]; 500 g/ha)
5: Herbicidal efficacy, Echinochloa crusgalli (Echinochloa crusgalli [6]; 125 g/ha, scale 0 to 10) | Herbicidal efficacy, Poa annua (Poa annua [8]; 125 g/ha) | Herbicidal efficacy, Alopecurus myosuroides (Alopecurus myosuroides [18]; post-emergence, 1,000 g/ha)
7: Herbicidal efficacy, Echinochloa crusgalli (Echinochloa crusgalli [15]; post-emergence, 1,000 g/ha) | Herbicidal efficacy, Digitaria sanguinalis (Digitaria sanguinalis [16]; post-emergence, 1,000 g/ha)
0: Phytotoxicity, Wheat (Wheat [4]) | Phytotoxicity, Rice (Rice [5]) | Herbicidal efficacy, Digitaria sanguinalis (Digitaria sanguinalis [7]; 62.5 g/ha) | Herbicidal efficacy, Alopecurus myosuroides (Alopecurus myosuroides [9]; 62.5 g/ha) | Phytotoxicity, Soybean (Soybean [11]) | Phytotoxicity, Cotton (Cotton [12]) | Phytotoxicity, Wheat (Wheat [13]) | Phytotoxicity, Rice (Rice [14]) | Herbicidal efficacy, Poa annua (Poa annua [17]; post-emergence, 125 g/ha) | Herbicidal efficacy, Alopecurus myosuroides (Alopecurus myosuroides [18]; post-emergence, 125 g/ha) | Herbicidal efficacy, Alopecurus myosuroides (Alopecurus myosuroides [18]; post-emergence, 250 g/ha)
3: Herbicidal efficacy, Echinochloa crusgalli (Echinochloa crusgalli [15]; post-emergence, 250 g/ha) | Herbicidal efficacy, Digitaria sanguinalis (Digitaria sanguinalis [16]; post-emergence, 250 g/ha) | Herbicidal efficacy, Poa annua (Poa annua [17]; post-emergence, 500 g/ha) | Herbicidal efficacy, Alopecurus myosuroides (Alopecurus myosuroides [18]; post-emergence, 500 g/ha)
9: Herbicidal efficacy, Digitaria sanguinalis (Digitaria sanguinalis [7]; 250 g/ha) | Herbicidal efficacy, Poa annua (Poa annua [8]; 250 g/ha) | Herbicidal efficacy, Poa annua (Poa annua [8]; 500 g/ha)
